Calls of active or inactive are those of the source. No cut-off for these calls is given here.
Key:
MDA-MB-231 [1] = test: Induction of cell cycle arrest in human MDA-MB-231 cells assessed as increase in accumulation in G0/G1 phase at 0.2 to 20 uM measured after 48 hrs by propidium iodide staining based flow cytometry; type: functional; conditions: dose 0.2-20 µM
A549 [2] = test: Potency index, ratio of IC50 of CLX-4 to IC50 of compound for antiproliferative activity against human A549 cells assessed as inhibition of cell growth measured after 72 hrs by MTT assay; type: functional
MDA-MB-231 [3] = test: Induction of apoptosis in human MDA-MB-231 cells assessed as increase in Bax expression at 0.4 to 10 uM measured after 48 hrs by Western blot analysis; type: functional, cell-based; conditions: dose 0.4-10 µM
[4] = Cytotoxicity against HUVEC cells assessed as inhibition of cell growth at 10 uM measured after 72 hrs by MTT assay; type: cell-based; conditions: human
MDA-MB-231 [5] = test: Induction of apoptosis in human MDA-MB-231 cells assessed as early apoptotic cells at 0.2 uM measured after 48 hrs by Annexin V-FITC/propidium iodide staining based flow cytometry (reference value: 1.03 %); type: functional
MDA-MB-231 [6] = test: Induction of apoptosis in human MDA-MB-231 cells assessed as decrease in Bcl-2 expression at 0.4 to 10 uM measured after 48 hrs by Western blot analysis; type: functional, cell-based; conditions: dose 0.4-10 µM
MDA-MB-231 [7] = test: Induction of cell cycle arrest in human MDA-MB-231 cells assessed as decrease in CyclinD1 expression at 0.4 to 10 uM measured after 48 hrs by Western blot analysis; type: functional, cell-based; conditions: dose 0.4-10 µM
MDA-MB-231 [8] = test: Induction of apoptosis in human MDA-MB-231 cells assessed as nuclear rupture at 0.2 to 20 uM measured after 48 hrs by Hoechst 33342 staining based fluorescence microscopic analysis; type: functional, cell-based; conditions: dose 0.2-20 µM
MDA-MB-231 [9] = test: Induction of apoptosis in human MDA-MB-231 cells assessed as necrotic cells at 20 uM measured after 48 hrs by Annexin V-FITC/propidium iodide staining based flow cytometry (reference value: 0.36 %); type: functional
MDA-MB-231 [10] = test: Induction of apoptosis in human MDA-MB-231 cells assessed as late apoptotic cells at 20 uM measured after 48 hrs by Annexin V-FITC/propidium iodide staining based flow cytometry (reference value: 4.5 %); type: functional
MDA-MB-231 [11] = test: Induction of apoptosis in human MDA-MB-231 cells assessed as necrotic cells at 2 uM measured after 48 hrs by Annexin V-FITC/propidium iodide staining based flow cytometry (reference value: 0.36 %); type: functional
MDA-MB-231 [12] = test: Induction of apoptosis in human MDA-MB-231 cells assessed as viable cells at 0.2 uM measured after 48 hrs by Annexin V-FITC/propidium iodide staining based flow cytometry (reference value: 94.1 %); type: functional; conditions: read-out: Activity
MDA-MB-231 [13] = test: Induction of apoptosis in human MDA-MB-231 cells assessed as late apoptotic cells at 0.2 uM measured after 48 hrs by Annexin V-FITC/propidium iodide staining based flow cytometry (reference value: 4.5 %); type: functional
MDA-MB-231 [14] = test: Induction of apoptosis in human MDA-MB-231 cells assessed as early apoptotic cells at 2 uM measured after 48 hrs by Annexin V-FITC/propidium iodide staining based flow cytometry (reference value: 1.03 %); type: functional
MDA-MB-231 [15] = test: Antimigratory activity in human MDA-MB-231 cells assessed as reduction in cell migration measured after 48 hrs by wound healing assay; type: functional, cell-based
MDA-MB-231 [16] = test: Induction of apoptosis in human MDA-MB-231 cells assessed as increase in apoptotic bodies at 0.2 to 20 uM measured after 48 hrs by Hoechst 33342 staining based fluorescence microscopic analysis; type: functional, cell-based; conditions: dose 0.2-20 µM
HepG2 = test: Antiproliferative activity against human HepG2 cells assessed as inhibition of cell growth at 10 uM measured after 72 hrs by MTT assay relative to control; type: functional
MDA-MB-231 [17] = test: Induction of apoptosis in human MDA-MB-231 cells assessed as increase in caspase-3 activation at 0.4 to 10 uM measured after 48 hrs by Western blot analysis; type: functional, cell-based; conditions: dose 0.4-10 µM
MDA-MB-231 [18] = test: Induction of apoptosis in human MDA-MB-231 cells assessed as viable cells at 2 uM measured after 48 hrs by Annexin V-FITC/propidium iodide staining based flow cytometry (reference value: 94.1 %); type: functional; conditions: read-out: Activity
MDA-MB-231 [19] = test: Induction of morphological changes in human MDA-MB-231 cells assessed as rounded cell morphology at 10 to 100 uM by optical inverted microscopic analysis; type: functional, cell-based; conditions: dose 10-100 µM
MCF7 = test: Antiproliferative activity against human MCF7 cells assessed as inhibition of cell growth at 10 uM measured after 72 hrs by MTT assay relative to control; type: functional
MDA-MB-231 [20] = test: Induction of apoptosis in human MDA-MB-231 cells assessed as increase in ratio of Bax/Bcl-2 at 0.4 to 10 uM measured after 48 hrs by Western blot analysis; type: functional, cell-based; conditions: dose 0.4-10 µM
HT-29 = test: Antiproliferative activity against human HT-29 cells assessed as inhibition of cell growth at 10 uM measured after 72 hrs by MTT assay relative to control; type: functional
MDA-MB-231 [21] = test: Antiproliferative activity against human MDA-MB-231 cells assessed as inhibition of cell growth measured after 72 hrs by MTT assay; type: functional, cell-based; conditions: MDA-MB-231, 72 h
MDA-MB-231 [22] = test: Induction of apoptosis in human MDA-MB-231 cells assessed as nuclear condensation at 0.2 to 20 uM measured after 48 hrs by Hoechst 33342 staining based fluorescence microscopic analysis; type: functional, cell-based; conditions: dose 0.2-20 µM
MDA-MB-231 [23] = test: Antiproliferative activity against human MDA-MB-231 cells assessed as inhibition of cell growth at 10 uM measured after 72 hrs by MTT assay relative to control; type: functional
MDA-MB-231 [24] = test: Antimigratory activity in human MDA-MB-231 cells assessed as cell migration at 2 uM measured after 48 hrs by wound healing assay (reference value: 67.4 %); type: functional
MDA-MB-231 [25] = test: Induction of apoptosis in human MDA-MB-231 cells assessed as increase in cleaved PARP level at 0.4 to 10 uM measured after 48 hrs by Western blot analysis; type: functional, cell-based; conditions: dose 0.4-10 µM
MDA-MB-231 [26] = test: Antimigratory activity in human MDA-MB-231 cells assessed as cell migration at 4 uM measured after 48 hrs by wound healing assay (reference value: 67.4 %); type: functional
MDA-MB-231 [27] = test: Induction of apoptosis in human MDA-MB-231 cells assessed as early apoptotic cells at 20 uM measured after 48 hrs by Annexin V-FITC/propidium iodide staining based flow cytometry (reference value: 1.03 %); type: functional
MDA-MB-231 [28] = test: Induction of morphological changes in human MDA-MB-231 cells assessed as cell shrinkage at 10 to 100 uM by optical inverted microscopic analysis; type: functional, cell-based; conditions: dose 10-100 µM
MDA-MB-231 [29] = test: Induction of apoptosis in human MDA-MB-231 cells assessed as increase in fluorescence intensity at 0.2 to 20 uM measured after 48 hrs by Hoechst 33342 staining based fluorescence microscopic analysis; type: functional, cell-based; conditions: dose 0.2-20 µM
A549 [30] = test: Antiproliferative activity against human A549 cells assessed as inhibition of cell growth measured after 72 hrs by MTT assay; type: functional, cell-based; conditions: A549, 72 h
MDA-MB-231 [31] = test: Induction of apoptosis in human MDA-MB-231 cells assessed as necrotic cells at 0.2 uM measured after 48 hrs by Annexin V-FITC/propidium iodide staining based flow cytometry (reference value: 0.36 %); type: functional
MDA-MB-231 [32] = test: Potency index, ratio of IC50 of CLX-4 to IC50 of compound for antiproliferative activity against human MDA-MB-231 cells assessed as inhibition of cell growth measured after 72 hrs by MTT assay; type: functional
MDA-MB-231 [33] = test: Induction of apoptosis in human MDA-MB-231 cells assessed as viable cells at 20 uM measured after 48 hrs by Annexin V-FITC/propidium iodide staining based flow cytometry (reference value: 94.1 %); type: functional; conditions: read-out: Activity
MDA-MB-231 [34] = test: Antimigratory activity in human MDA-MB-231 cells assessed as cell migration at 8 uM measured after 48 hrs by wound healing assay (reference value: 67.4 %); type: functional
MDA-MB-231 [35] = test: Induction of apoptosis in human MDA-MB-231 cells assessed as late apoptotic cells at 2 uM measured after 48 hrs by Annexin V-FITC/propidium iodide staining based flow cytometry (reference value: 4.5 %); type: functional
MDA-MB-231 [36] = test: Induction of cell cycle arrest in human MDA-MB-231 cells assessed as decrease in CDK4 expression at 0.4 to 10 uM measured after 48 hrs by Western blot analysis; type: functional, cell-based; conditions: dose 0.4-10 µM
A549 [37] = test: Antiproliferative activity against human A549 cells assessed as inhibition of cell growth at 10 uM measured after 72 hrs by MTT assay relative to control; type: functional
MDA-MB-231 [38] = test: Induction of morphological changes in human MDA-MB-231 cells assessed as shedding of cell morphology at 10 to 100 uM by optical inverted microscopic analysis; type: functional, cell-based; conditions: dose 10-100 µM

IC50 (MDA-MB-231 [21]): 660 nM | IC50 (A549 [30]): 1200 nM
SMILES: CCC(Oc1c2cc(C(C)(C)C)cc1Cc1cc(C(C)(C)C)cc(c1O)Cc1cc(C(C)(C)C)cc(c1OC(CC)C(=O)N(CCO)CCO)Cc1cc(C(C)(C)C)cc(c1O)C2)C(=O)N(CCO)CCO (stereo unspecified)
Activity (MDA-MB-231 [1]): Active | Ratio IC50 (A549 [2]): 3.2 | Activity (MDA-MB-231 [3]): Active | inhibition at 72 h, 10 µM [4]: 9.6% | Activity (MDA-MB-231 [5]): 12.3% | Activity (MDA-MB-231 [6]): Active | Activity (MDA-MB-231 [7]): Active | Activity (MDA-MB-231 [8]): Active | Activity (MDA-MB-231 [9]): 1.37% | Activity (MDA-MB-231 [10]): 40.4% | Activity (MDA-MB-231 [11]): 0.34% | viability at 0.2 µM (MDA-MB-231 [12]): 65.5% | Activity (MDA-MB-231 [13]): 21.2% | Activity (MDA-MB-231 [14]): 22.1% | Activity (MDA-MB-231 [15]): Dose-dependent effect | Activity (MDA-MB-231 [16]): Active | inhibition at 10 µM (HepG2): 89.6% | Activity (MDA-MB-231 [17]): Active | viability at 2 µM (MDA-MB-231 [18]): 56.9% | Activity (MDA-MB-231 [19]): Active | inhibition at 10 µM (MCF7): 90.4% | Activity (MDA-MB-231 [20]): Active | inhibition at 10 µM (HT-29): 64.2% | Activity (MDA-MB-231 [22]): Active | inhibition at 10 µM (MDA-MB-231 [23]): 88.2% | Activity (MDA-MB-231 [24]): 76.9% | Activity (MDA-MB-231 [25]): Active | Activity (MDA-MB-231 [26]): 79% | Activity (MDA-MB-231 [27]): 19.2% | Activity (MDA-MB-231 [28]): Active | Activity (MDA-MB-231 [29]): Active | Activity (MDA-MB-231 [31]): 1.13% | Ratio IC50 (MDA-MB-231 [32]): 6.8 | viability at 20 µM (MDA-MB-231 [33]): 39% | Activity (MDA-MB-231 [34]): 84% | Activity (MDA-MB-231 [35]): 20.7% | Activity (MDA-MB-231 [36]): Active | inhibition at 10 µM (A549 [37]): 90.7% | Activity (MDA-MB-231 [38]): Active

Source: ChEMBL document CHEMBL4732096, “Design, synthesis and evaluation of calix[4]arene-based carbonyl amide derivatives with antitumor activities” (Eur J Med Chem, 2021)
